Results: PMC3293837, “Biophysical Property and Broad Anti-HIV Activity of Albuvirtide, a 3-Maleimimidopropionic Acid-Modified Peptide Fusion Inhibitor” (PLoS ONE, 2012)

What was measured:
Format in all cases: cell-based, HIV-1
[1] = test system: GX2010.36H pseudovirus (CRF01_AE); conditions: R5, TZM-bl, 48 h, triplicate, mean ± SD of at least three independent experiments
Source text: (§1) A panel of plasmids encoding HIV-1 Envs were obtained through the AIDS Research and Reference Reagent Program (ARRRP), Division of AIDS, NIAID, NIH, including subtype A Env clones pSVIII-92RW020.5 and 92UG037.8 from Dr. B.H. Hahn; subtype B Env clones SC422661.8, TRO.11 and AC10.0.29 from Drs. D. Montefiori, F. Gao and M. Li, pRHPA4259.7 and pREJO4541.67 from Drs. B.H. Hahn and J.F. Salazar-Gonzalez, and pCAAN5342.A2 from Drs. B.H. Hahn and D.L. Kothe; subtype C Env clones Du172.17 and Du422.1 from Drs. D. Montefiori, F. Gao, S. Abdool Karim and G. Ramjee, CAP45.2.00.G3 from Drs. L. Morris, K. Mlisana and D. Montefiori, ZM197M.PB7 from Drs. B.H. Hahn, Y. Li and J.F. Salazar-Gonzalez, ZM109F.PB4 from Drs. E. Hunter and C. Derdeyn. Six CRF07_BC Env clones (CH064.20, CH070.1, CH091.9, CH110.2, CH119.10 and CH120.6) were generous gifts by Dr. Y. Shao in the Chinese Center for Disease Control and Prevention, Beijing, China. A panel of Env clones derived from subtype B′ (B01, B02, B04, and 43-22), CRF01_AE (SHX335.24, YN192.31, AE01, AE03, GX2010.36, GX11.13, GX2010.36H, BJ5.11), and CRF07_BC (BC02, BC03, BC05, BC07, BC14, SC19-15, BJ22-5, YN148R-9, XJ50-6, HB5-3) were kindly provided by Dr. Y. Wang from the National Institute for the Control of Pharmaceutical and Biological Products, Beijing, China.

[2] = test system: BC03 pseudovirus (CRF07_BC); conditions: R5, TZM-bl, 48 h, triplicate, mean ± SD of at least three independent experiments
Source text: as §1

[3] = test system: CH110 pseudovirus (CRF07_BC); conditions: R5, TZM-bl, 48 h, triplicate, mean ± SD of at least three independent experiments
Source text: as §1

[4] = test system: BC05 pseudovirus (CRF07_BC); conditions: R5, TZM-bl, 48 h, triplicate, mean ± SD of at least three independent experiments
Source text: as §1

[5] = test system: TRO.11 pseudovirus (subtype B); conditions: TRO.11, subtype B, R5; TZM-bl, 48 h; triplicate, mean ± SD of three independent experiments
Source text: as §1

[6] = test system: AE03 pseudovirus (CRF01_AE); conditions: R5, TZM-bl, 48 h, triplicate, mean ± SD of at least three independent experiments
Source text: as §1

[7] = test system: CH070 pseudovirus (CRF07_BC); conditions: R5, TZM-bl, 48 h, triplicate, mean ± SD of at least three independent experiments
Source text: as §1

[8] = test system: SC422661.8 pseudovirus (subtype B); conditions: SC422661.8, subtype B, R5; TZM-bl, 48 h; triplicate, mean ± SD of three independent experiments
Source text: as §1

[9] = test system: B02 pseudovirus (subtype B′); conditions: R5, TZM-bl, 48 h, triplicate, mean ± SD of at least three independent experiments
Source text: as §1

[10] = test system: CH064 pseudovirus (CRF07_BC); conditions: R5, TZM-bl, 48 h, triplicate, mean ± SD of at least three independent experiments
Source text: as §1

[11] = test system: AE01 pseudovirus (CRF01_AE); conditions: R5, TZM-bl, 48 h, triplicate, mean ± SD of at least three independent experiments
Source text: as §1

[12] = test system: AC10.0.29 pseudovirus (subtype B); conditions: AC10.0.29, subtype B, R5; TZM-bl, 48 h; triplicate, mean ± SD of three independent experiments
Source text: as §1

[13] = test system: BC07 pseudovirus (CRF07_BC); conditions: R5, TZM-bl, 48 h, triplicate, mean ± SD of at least three independent experiments
Source text: as §1

[14] = test system: 92UG037.8 pseudovirus (subtype A); conditions: 92UG037.8, subtype A, R5; TZM-bl, 48 h; triplicate, mean ± SD of three independent experiments
Source text: as §1

[15] = test system: CH091 pseudovirus (CRF07_BC); conditions: R5, TZM-bl, 48 h, triplicate, mean ± SD of at least three independent experiments
Source text: as §1

[16] = test system: ZM109F.PB4 pseudovirus (subtype C); conditions: R5, TZM-bl, 48 h, triplicate, mean ± SD of three independent experiments
Source text: as §1

[17] = test system: XJ50-6 pseudovirus (CRF07_BC); conditions: XJ50-6, CRF07_BC, R5; TZM-bl, 48 h; triplicate, mean ± SD of at least three independent experiments
Source text: as §1

[18] = test system: CH119 pseudovirus (CRF07_BC); conditions: R5, TZM-bl, 48 h, triplicate, mean ± SD of at least three independent experiments
Source text: as §1

[19] = test system: GX11.13 pseudovirus (CRF01_AE); conditions: GX11.13, CRF01_AE, R5; TZM-bl, 48 h; triplicate, mean ± SD of at least three independent experiments
Source text: as §1

[20] = test system: CAP45.2.00.G3 pseudovirus (subtype C); conditions: CAP45.2.00.G3, subtype C, R5; TZM-bl, 48 h; triplicate, mean ± SD of three independent experiments
Source text: as §1

[21] = test system: BC02 pseudovirus (CRF07_BC); conditions: R5, TZM-bl, 48 h, triplicate, mean ± SD of at least three independent experiments
Source text: as §1

[22] = test system: BC14 pseudovirus (CRF07_BC); conditions: R5, TZM-bl, 48 h, triplicate, mean ± SD of at least three independent experiments
Source text: as §1

[23] = test system: REJO4541 pseudovirus (subtype B); conditions: R5, TZM-bl, 48 h, triplicate, mean ± SD of three independent experiments
Source text: as §1

[24] = test system: ZM197M.PB7 pseudovirus (subtype C); conditions: R5, TZM-bl, 48 h, triplicate, mean ± SD of three independent experiments
Source text: as §1

[25] = test system: YN148r-9 pseudovirus (CRF07_BC); conditions: YN148r-9, CRF07_BC, R5; TZM-bl, 48 h; triplicate, mean ± SD of at least three independent experiments
Source text: as §1

## enfuvirtide
[1]
  IC50: 25.9 ± 0.28 nM
[2]
  IC50: 3.46 ± 0.41 nM
[3]
  IC50: 18.6 ± 3.15 nM
[4]
  IC50: 4.39 ± 0.25 nM
[5]
  IC50: 334 ± 48.9 nM
[6]
  IC50: 7.8 ± 1.66 nM
[7]
  IC50: 136 ± 36.4 nM
[8]
  IC50: 28.2 ± 5.92 nM
[9]
  IC50: 8.59 ± 0.8 nM
[10]
  IC50: 61.7 ± 12.5 nM
[11]
  IC50: 24.8 ± 2.25 nM
[12]
  IC50: 10.1 ± 0.45 nM
[13]
  IC50: 12.5 ± 1.58 nM
[14]
  IC50: 3.55 ± 0.95 nM
[15]
  IC50: 65.9 ± 14.3 nM
[16]
  IC50: 76.4 ± 2.69 nM
[17]
  IC50: 81.1 ± 17.6 nM
[18]
  IC50: 22.1 ± 2.74 nM
[19]
  IC50: 6.6 ± 0.32 nM
[20]
  IC50: 96.2 ± 6.91 nM
[21]
  IC50: 2.6 ± 0.48 nM
[22]
  IC50: 109 ± 52.6 nM
[23]
  IC50: 78.1 ± 11.3 nM
[24]
  IC50: 63.3 ± 17 nM
[25]
  IC50: 131 ± 14.7 nM
